Test results: patent US8680282B2, “Cyclic inhibitors of carnitine palmitoyltransferase and treating cancer” (University Health Network, priority 2007, dated 2014)

How the values were obtained:
[1] = system: SW620; test: Cancer cell growth inhibition, SRB assay; type: cell-based, human; design: Percentage of Growth Inhibition: scale not given here; details: SW620; at 10 μM; SRB at Day 6; NE = no activity at 10 micromolar
[2] = system: PC-3; test: Cancer cell growth inhibition, SRB assay; type: cell-based, human; details: PC-3; at 10 μM; SRB at Day 6; NE = no activity at 10 micromolar
Method: (§1) Human cancer cells (MCF-7, H358, H460, HCT116 p53^+/+, HCT116 p53^−/−, A172, PC-3, DU-145 and SW626) were maintained in DMEM medium containing 10% Fetal Bovine Serum (FBS) (Invitrogen, Burlington, ON, Canada) and normal cells HMEC, 184A1, NHBE and PrEC were cultured in MEGM, MEGM plus transferring and cholera toxin, BEGM and PrEGM supplemented with various growth factors (Cambrex, Charles city, Iowa, USA), respectively.
(§2) Compounds of Examples S1 to S30, and 4-(carboxymethyl)-4-(6-(3-hexyloxy)phenoxy)hexanoamido)-1,1-dimethylpiperidinium 2,2,2-trifluoroactate (“Compound A”) were tested in this example. Each of the tested compounds was dissolved in DMSO and further diluted in cell culture medium for the experiments performed. Cells were seeded into 96-well plates with 1,500-5,000 cells/well according to cell growth rate. After 24 h, DMEM medium containing 10% FBS were changed to DMEM containing 3% FBS for cancer cells. The compound was added into the cell culture at the indicated concentrations, and the final concentration of DMSO was adjusted to a final concentration of 0.1%. Cell viability was assessed by Sulforhodamine B (SRB) assay at Day 6.
(§3) Sulforhodamine B (SRB) (Sigma, Oakville, ON, Canada) is a water-soluble dye that binds to the basic amino acids of the cellular proteins. Thus, colorimetric measurement of the bound dye provides an estimate of the total protein mass that is related to the cell number. The cells were fixed in situ by gently aspirating off the culture media and adding 50 ul of cold 10% Tri-chloroacetic Acid (TCA) per well and incubated at 4° C. for 30-60 min. The plates were washed five times with water and allowed to air dry for 5 min. 50 ul of 0.4% (w/v) SRB dissolved in 1% (v/v) acetic acid were added into each well, plates were then incubated at RT for 30 min for staining, washed four times with 1% acetic acid to remove any unbound dye and then allowed to air dry for 5 min. Stain was solubilized with 100 ul of 10 mM Tris pH 10.5 per well. Absorbance was read at 570 nm on a spectrophotometer. GI50 (compound concentration required for 50% of growth inhibition) was calculated using GraphPad Prism 4.0 software (GraphPad Software, Inc., San Diego, Calif., USA). Growth inhibition (%) was determined as percentage of cells remaining compared to the DMSO-treated cells as control.

[3] = system: A172; test: Cancer cell growth inhibition, SRB assay; type: cell-based, human; details: A172; at 10 μM; SRB at Day 6; NE = no activity at 10 micromolar
Method: as §1, §2, §3

[4] = system: SW480; test: Cancer cell growth inhibition, SRB assay; type: cell-based, human; details: SW480; at 10 μM; SRB at Day 6; NE = no activity at 10 micromolar
[5] = system: H358; test: Cancer cell growth inhibition, SRB assay; type: cell-based, human; design: Percentage of Growth Inhibition: unit not given here; details: H358; at 10 μM; SRB at Day 6; NE = no activity at 10 micromolar
Method: as §1, §2, §3

[6] = system: COLO-205; test: Cancer cell growth inhibition, SRB assay; type: cell-based, human; details: COLO-205; at 10 μM; SRB at Day 6; NE = no activity at 10 micromolar
[7] = system: HCT-15; test: Cancer cell growth inhibition, SRB assay; type: cell-based, human; design: Percentage of Growth Inhibition: scale not given here; details: HCT-15; at 10 μM; SRB at Day 6; NE = no activity at 10 micromolar
[8] = system: MCF-7; test: Cancer cell growth inhibition, SRB assay; type: cell-based, human; design: Percentage of Growth Inhibition: scale not given here; details: MCF-7; at 10 μM; SRB at Day 6; NE = no activity at 10 micromolar
Method: as §1, §2, §3

[9] = system: SW626; test: Cancer cell growth inhibition, SRB assay; type: cell-based, human; design: Percentage of Growth Inhibition: scale not given here; details: SW626; at 10 μM; SRB at Day 6; NE = no activity at 10 micromolar
Method: as §1, §2, §3

[10] = target: T1, human CPT1A (Homo sapiens, UniProt P50416); test: Human CPT1A LC/MS assay; type: biochemical
T1 construct: made in house; host or cells: Saccharomyces cerevisiae (pESC-trp) or cultured mammalian cells (pCDNA3.1); mitochondrial extract
T1 sequence (P50416 1-773): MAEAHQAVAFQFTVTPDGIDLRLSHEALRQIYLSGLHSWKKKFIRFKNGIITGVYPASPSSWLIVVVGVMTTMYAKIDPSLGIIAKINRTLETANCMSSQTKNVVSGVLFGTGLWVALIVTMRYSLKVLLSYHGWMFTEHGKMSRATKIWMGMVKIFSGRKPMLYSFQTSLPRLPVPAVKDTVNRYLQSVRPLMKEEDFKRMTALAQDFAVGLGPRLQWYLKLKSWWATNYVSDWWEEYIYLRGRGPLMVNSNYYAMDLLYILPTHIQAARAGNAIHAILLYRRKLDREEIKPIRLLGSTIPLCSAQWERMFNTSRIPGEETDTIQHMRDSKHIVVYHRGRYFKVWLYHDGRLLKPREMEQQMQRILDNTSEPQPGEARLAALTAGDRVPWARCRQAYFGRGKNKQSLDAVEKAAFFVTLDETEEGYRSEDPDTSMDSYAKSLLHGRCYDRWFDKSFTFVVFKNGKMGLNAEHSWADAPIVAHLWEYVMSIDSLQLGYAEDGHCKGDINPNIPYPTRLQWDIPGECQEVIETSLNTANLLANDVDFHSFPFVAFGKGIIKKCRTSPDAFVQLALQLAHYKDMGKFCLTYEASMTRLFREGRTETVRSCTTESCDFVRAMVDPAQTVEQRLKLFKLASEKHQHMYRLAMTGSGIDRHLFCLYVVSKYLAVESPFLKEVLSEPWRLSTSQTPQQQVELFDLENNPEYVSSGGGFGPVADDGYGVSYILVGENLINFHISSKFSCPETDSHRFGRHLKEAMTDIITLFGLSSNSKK
Description: Nucleotide sequences encoding human CPT1 enzymes were individually cloned into the yeast expression vector pESC-trp at the Cla1 (5′ terminus) and Pac1 (3′ terminus) restriction sites by PCR amplification of the open reading frame using oligonucleotide primers designed to encode the wild-type CPT1 protein sequence. Standard molecular biology techniques were used to transform and express the CPT1 proteins in the yeast Saccharomyces cerevisiae. The yeast cells were lysed by enzymatic degradation of the cell wall by Zymolase, and the mitochondria were isolated by standard biochemical techniques. The integrity of the isolated mitochondria was monitored by determining the activity of succinate dehydrogenase in the mitochondrial preparations. The mitochondrial extracts were stored at −80° C. in buffer containing 10 mM HEPES pH 7.4 and 250 mM sucrose.
Human CPT1 (A, B, C) genes were additionally cloned into the pCDNA3.1 vector individually for expression in cultured mammalian cells. Cells expressing the exogenous CPT1A were identified and grown under standard conditions. Mammalian cells were harvested, and mitochondrial extracts prepared using standard biochemical methods. The mitochondrial extracts were stored at −80° C. in buffer containing 10 mM HEPES pH 7.4 and 250 mM sucrose.
Assays were performed in 96-well plate format. Each 100 μL reaction contained 40 mM KCl, 50 mM TrisHCl pH 7.5, and 250 mM mannitol (Assay Buffer), and 1.6 μg protein of an extract, 20 μM palmitoyl-CoA, 50 μM L-carnitine, and 10 ug/mL BSA. Reactions were incubated at room temperature and stopped after 10 minutes by extraction with 200 μL of water saturated n-butanol containing myristoyl carnitine (500 nM) as an internal standard. The samples were thoroughly mixed, and the phases separated by centrifugation. Samples were prepared for analysis with a 10 fold dilution of the n-butanol phase containing the reaction product palmitoyl carnitine into a 50:50 (acetonitrile:water) solvent for analysis. 5 μL of prepared sample was separated on a Phenomenex Jupiter 5μ C4 reverse-phase column using an Agilent 1100 HPLC with a gradient from 50% acetonitrile (0.5% acetic acid) to 100% acetonitrile and quantified by detection with a Bruker Esquire 3000plus mass spectrometer. The abundance of the palmitoyl carnitine product was determined relative to the internal standard and the actual quantity of palmitoyl carnitine can be determined from a standard curve prepared using the n-butanol solution containing the internal standard.
Compounds were evaluated in two formats, a screening format, and a dose response format. The screening format was performed by adding 25 μL compound in 20% DMSO and Assay Buffer to 25 μL of extract containing […] and Assay Buffer, followed by a 10 minute incubation at room temperature. 50 μL of 40 μM palmitoyl-CoA in Assay Buffer was added to the reaction mixture, mixed and incubated for 10 minutes at room temperature. A negative control for activity was also performed where the carnitine was omitted from the reaction. A positive control for activity was also performed by omitting compound from the solution containing 20% DMSO and Assay Buffer. The reaction mixture was extracted and analyzed as described above. The inhibition by compound was determined by comparing the control relative activity to the relative activity observed in wells containing the compound. Relative activity was determined by subtracting the relative intensity (area palmitoyl carnitine/area myristoyl carnitine) observed in the negative control from the relative intensity observed in the experimental well, and dividing by the relative activity observed in the positive control.
[formula] Compound characterization by dose response format was performed using the above described assay conditions and a 16 point compound titration in 2 fold compound dilution steps. The DMSO concentration was kept constant at 20% (v/v) for all compound concentrations.

[11] = system: HCT-8; test: Cancer cell growth inhibition, SRB assay; type: cell-based, human; details: at 10 μM, SRB at Day 6
[12] = human CPT1A LC/MS assay, dose response format

| SMILES | Percentage of Growth Inhibition [3] [%] | Percentage of Growth Inhibition [5] | Percentage of Growth Inhibition [8] [%] | Percentage of Growth Inhibition [9] [%] | IC50 [10, 12] [µM] | other results |
| --- | --- | --- | --- | --- | --- | --- |
| CCCCCCCCc1ccc(NC(=O)NC2(CC(=O)O)CCN(C)CC2)cc1 [Example S1, 4-(carboxymethyl)-1-methyl-4-(3-(4-octylphenyl)ureido)piperidinium 2,2,2-trifluoroacetate] | 0.1571 | 0.4324 | 0.1204 | 0.05142 |  | Percentage of Growth Inhibition [1]: 0.04345%; Percentage of Growth Inhibition [2]: 0.1924%; Percentage of Growth Inhibition [4]: 0.08459%; Percentage of Growth Inhibition [6]: 0.07287%; Percentage of Growth Inhibition [7]: 0.05911% |
| CCCCCc1ccc(S(=O)(=O)NC2(CC(=O)O)CCC[N+](C)(C)C2)cc1 (centres unmarked) [Example S12, 3-(carboxymethyl)-1,1-dimethyl-3-(4-pentylphenylsulfonamido)-piperidinium 2,2,2-trifluoroacetate] | 0.07689 | 0.04495 | 0.2351 | 0.00486 | ≤ 1 | Percentage of Growth Inhibition [6]: 0.1281% |
| CN1CCCC(CC(=O)O)(NC(=O)c2ccc(CCc3ccccc3)o2)C1 (centres unmarked) [Example S13, 3-(carboxymethyl)-1-methyl-3-(5-phenethylfuran-2-carboxamido)-piperidinium 2,2,2-trifluoroacetate] |  |  |  |  | 100 to 1000 |  |
| C[N+]1(C)CCCC(CC(=O)O)(NC(=O)c2ccc(CCc3ccccc3)o2)C1 (centres unmarked) [Example S14, 3-(carboxymethyl)-1,1-dimethyl-3-(5-phenethylfuran-2-carboxamido)piperidinium 2,2,2-trifluoroacetate] |  | 0.3919 |  |  | 10 to 100 | Percentage of Growth Inhibition [1]: 0.04122% |
| CCCCCCCCc1ccc(NC(=O)NC2(CC(=O)O)CCN(C)C2)cc1 (centres unmarked) [Example S17, 3-(carboxymethyl)-1-methyl-3-(3-(4-octylphenyl)ureido)pyrrolidinium 2,2,2-trifluoroacetate] |  |  |  |  | 10 to 100 |  |
| CCCCCc1ccc(S(=O)(=O)NC2(CC(=O)O)CCN(C)C2)cc1 (centres unmarked) [Example S19, 3-(carboxymethyl)-1-methyl-3-(4-pentylphenylsulfonamido)-pyrrolidinium 2,2,2-trifluoroacetate] |  |  | 0.08166 |  | 100 to 1000 |  |
| CCCCCc1ccc(S(=O)(=O)NC2(CC(=O)O)CNC2)cc1 [Example S25, 3-(carboxymethyl)-3-(4-pentylphenylsulfonamido)azetidinium 2,2,2-trifluoroacetate] |  | 0.05754 | 0.1452 | 0.07606 | > 2500 | Percentage of Growth Inhibition [7]: 0.00572% |
| CCCCCCCCc1ccc(NS(=O)(=O)NC2(CC(=O)O)CNC2)cc1.O=C(O)C(F)(F)F [Example S28, 3-(carboxymethyl)-3-(N-(4-octylphenyl)sulfamoylamino)azetidinium 2,2,2-trifluoroacetate] | 0.3077 | 0.06989 | 0.04154 | 0.04727 | > 2500 | Percentage of Growth Inhibition [2]: 0.6043%; Percentage of Growth Inhibition [11]: 0.06675% |
| C[N+](C)(C)C[C@H](N)CC(=O)[O-] [L-aminocarnitine, reference compound] |  |  |  |  |  | IC50 ([10]; dose response assay, n=17): 7 ± 2.5 µM |
